Like-named read-outs stand apart in the source and are kept apart here.
Legend:
Type in all cases: biochemical
human Yes1 enzyme = target: T1, human Yes1 enzyme (Homo sapiens, UniProt P07947); experiment: Yes1 enzyme inhibitory activity (time-resolved fluorometry, biotinylated peptide phosphorylation); details: read-out: YES_IC50
T1 construct: made in house
Summary of the method: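 Inhibition was expressed against a compound-free control to give IC50, using TR-FRET read-out (Eu-cryptate anti-pTyr antibody, streptavidin-XL665).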

human Src enzyme = target: T2, human Src enzyme (Homo sapiens, UniProt P12931); experiment: Src enzyme inhibitory activity (time-resolved fluorometry, biotinylated peptide phosphorylation); details: read-out: SRC_IC50
T2 construct: purchased Carna Biosciences, Inc. 08-173
T2 sequence (P12931 whole entry): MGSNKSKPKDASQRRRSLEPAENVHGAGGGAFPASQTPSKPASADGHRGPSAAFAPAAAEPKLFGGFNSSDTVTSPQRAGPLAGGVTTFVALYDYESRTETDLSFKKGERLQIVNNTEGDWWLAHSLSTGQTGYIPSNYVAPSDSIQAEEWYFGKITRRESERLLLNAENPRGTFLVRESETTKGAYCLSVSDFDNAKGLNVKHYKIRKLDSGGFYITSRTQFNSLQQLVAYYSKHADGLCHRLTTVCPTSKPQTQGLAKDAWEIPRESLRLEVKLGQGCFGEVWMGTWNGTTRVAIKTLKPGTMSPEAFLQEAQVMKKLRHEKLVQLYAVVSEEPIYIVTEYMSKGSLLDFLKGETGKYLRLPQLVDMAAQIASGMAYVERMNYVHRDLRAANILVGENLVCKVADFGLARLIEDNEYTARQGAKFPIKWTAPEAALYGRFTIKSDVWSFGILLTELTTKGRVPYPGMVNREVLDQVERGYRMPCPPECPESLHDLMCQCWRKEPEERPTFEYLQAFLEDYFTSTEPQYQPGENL
Summary of the method: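 Compounds were tested for blocking tyrosine phosphorylation of a biotinylated peptide substrate by recombinant human Src. Phosphorylated product was quantified by time-resolved fluorometry using europium cryptate and XL665 conjugates, and IC50 was calculated against the compound-free control.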

human Lck enzyme = target: T3, human Lck enzyme (Homo sapiens, UniProt P06239); experiment: Lck enzyme inhibitory activity (time-resolved fluorometry, biotinylated peptide phosphorylation); details: read-out: LCK_IC50
T3 construct: purchased Carna Biosciences, Inc. 08-170
T3 sequence (P06239 whole entry): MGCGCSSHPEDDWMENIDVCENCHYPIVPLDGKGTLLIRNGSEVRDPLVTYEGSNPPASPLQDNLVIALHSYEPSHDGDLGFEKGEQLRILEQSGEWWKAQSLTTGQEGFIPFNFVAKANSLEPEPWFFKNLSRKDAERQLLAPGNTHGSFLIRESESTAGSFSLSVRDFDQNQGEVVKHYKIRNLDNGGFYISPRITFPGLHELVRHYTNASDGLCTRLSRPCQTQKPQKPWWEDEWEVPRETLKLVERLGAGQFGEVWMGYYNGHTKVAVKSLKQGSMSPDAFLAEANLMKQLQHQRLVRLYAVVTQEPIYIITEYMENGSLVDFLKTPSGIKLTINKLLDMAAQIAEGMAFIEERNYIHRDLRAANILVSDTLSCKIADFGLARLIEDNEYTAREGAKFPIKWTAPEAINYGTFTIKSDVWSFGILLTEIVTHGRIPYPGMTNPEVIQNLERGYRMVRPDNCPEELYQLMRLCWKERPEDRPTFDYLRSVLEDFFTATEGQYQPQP
Summary of the method: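 Readout pairs a europium cryptate-labelled anti-phosphotyrosine antibody with XL665-streptavidin, measured by time-resolved fluorescence. IC50 derived from percent inhibition against untreated controls.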

[1] = biotinylated peptide phosphorylation

T1 sequence (P07947 whole entry): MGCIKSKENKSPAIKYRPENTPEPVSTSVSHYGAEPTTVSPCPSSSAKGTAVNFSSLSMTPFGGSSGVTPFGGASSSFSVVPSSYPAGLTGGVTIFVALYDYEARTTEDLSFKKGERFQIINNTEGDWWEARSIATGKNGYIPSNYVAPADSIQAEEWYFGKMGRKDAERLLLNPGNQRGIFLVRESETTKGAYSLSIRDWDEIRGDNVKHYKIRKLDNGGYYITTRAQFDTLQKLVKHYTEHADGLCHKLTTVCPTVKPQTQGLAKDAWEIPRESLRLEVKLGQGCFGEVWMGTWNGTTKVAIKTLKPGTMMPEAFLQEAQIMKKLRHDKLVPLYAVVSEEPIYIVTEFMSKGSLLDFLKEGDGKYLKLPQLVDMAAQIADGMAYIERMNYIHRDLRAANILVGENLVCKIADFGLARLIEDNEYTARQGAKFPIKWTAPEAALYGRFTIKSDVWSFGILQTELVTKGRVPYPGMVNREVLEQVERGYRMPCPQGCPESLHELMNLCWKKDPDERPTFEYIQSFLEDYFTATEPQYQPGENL

SMILES | IC50 (human Yes1 enzyme; [1]) [nM] | IC50 (human Src enzyme; [1]) [nM] | IC50 (human Lck enzyme; [1]) [nM] | IC50 (human Yes1 enzyme) [nM] | IC50 (human Src enzyme) [nM] | IC50 (human Lck enzyme) [nM]
Cc1cc2cc(C(=O)c3cnn(-c4cnc(Oc5ccccc5F)cc4C)c3N)[nH]c2cc1NS(=O)(=O)CC(=O)N1CCOCC1 [Example 4-15-001, N-(2-(5-amino-1-(6-(2-fluorophenoxy)-4-methylpyridin-3-yl)-1H-pyrazole-4-carbonyl)-5-methyl-1H-indol-6-yl)-2-morpholino-2-oxoethanesulfonamide] | 1.1 | 18 | 9.9 |  |  | 
Cc1cc(Oc2c(F)cccc2F)ncc1-n1ncc(C(=O)c2cc3cc(OC4CCN(C(C)C)CC4)c(C4CCN(S(C)(=O)=O)CC4)cc3[nH]2)c1N [Example 5-1-229, (5-amino-1-(6-(2,6-difluorophenoxy)-4-methylpyridin-3-yl)-1H-pyrazol-4-yl)(5-((1-isopropylpiperidin-4-yl)oxy)-6-(1-(methylsulfonyl)piperidin-4-yl)-1H-indol-2-yl)methanone] |  |  |  | 0.77 | 6.1 | 2.4
Cc1cc(-n2ncc(C(=O)c3cc4cc(OC(F)F)c(N5CCOC5=O)cc4[nH]3)c2N)ccc1Oc1ccccc1F [Example 5-1-177, 3-[2-[5-amino-1-[4-(2-fluorophenoxy)-3-methylphenyl]pyrazole-4-carbonyl]-5-(difluoromethoxy)-1H-indol-6-yl]-1,3-oxazolidin-2-one] |  |  |  | 2.4 | 340 | 82
Cc1cccc(S(=O)(=O)Nc2cc3[nH]c(C(=O)c4cnn(-c5cnc(Oc6ccccc6F)cc5C)c4N)cc3cc2F)n1 [Example 5-1-534, N-[2-[5-amino-1-[6-(2-fluorophenoxy)-4-methylpyridin-3-yl]pyrazole-4-carbonyl]-5-fluoro-1H-indol-6-yl]-6-methylpyridine-2-sulfonamide] | 5.1 | 640 | 170 |  |  | 
COc1ccnc(S(=O)(=O)Nc2cc3[nH]c(C(=O)c4cnn(-c5cnc(Oc6ccccc6F)cc5C)c4N)cc3cc2F)c1 [Example 5-1-514, N-[2-[5-amino-1-[6-(2-fluorophenoxy)-4-methylpyridin-3-yl]pyrazole-4-carbonyl]-5-fluoro-1H-indol-6-yl]-4-methoxypyridine-2-sulfonamide] | 3.3 | 760 | 140 |  |  | 
Cc1cc(Oc2ccccc2F)ncc1-n1ncc(C(=O)c2cc3cc(OC(F)F)c(NS(=O)(=O)CCCF)cc3[nH]2)c1N [Example 4-24-009, N-[2-[5-amino-1-[6-(2-fluorophenoxy)-4-methylpyridin-3-yl]pyrazole-4-carbonyl]-5-(difluoromethoxy)-1H-indol-6-yl]-3-fluoropropane-1-sulfonamide] | 3.6 | 120 | 39 |  |  | 
Cc1cc(-n2ncc(C(=O)c3cc4cc(N5CCOCC5)c(N5C(=O)NC(C)(C)C5=O)cc4[nH]3)c2N)ccc1Oc1ccccc1F [Example 5-1-164, 3-[2-[5-amino-1-[4-(2-fluorophenoxy)-3-methylphenyl]pyrazole-4-carbonyl]-5-morpholin-4-yl-1H-indol-6-yl]-5,5-dimethylimidazolidine-2,4-dione] |  |  |  | 1.8 | 700 | 69
COc1cc2cc(C(=O)c3cnn(-c4cnc(Oc5c(F)cccc5F)cc4C)c3N)[nH]c2cc1N1CCCS1(=O)=O [Example 4-2-121, [5-amino-1-[6-(2,6-difluorophenoxy)-4-methylpyridin-3-yl]pyrazol-4-yl]-[6-(1,1-dioxo-1,2-thiazolidin-2-yl)-5-methoxy-1H-indol-2-yl]methanone] | 0.54 | 8 | 2.1 |  |  | 
Cc1cc(Oc2c(F)cccc2F)ncc1-n1ncc(C(=O)c2cc3cc(OC(F)F)c(NC4COC4)cc3[nH]2)c1N [Example 4-23-014, [5-amino-1-[6-(2,6-difluorophenoxy)-4-methylpyridin-3-yl]pyrazol-4-yl]-[5-(difluoromethoxy)-6-(oxetan-3-ylamino)-1H-indol-2-yl]methanone] | 3.5 | 22 | 9.2 |  |  | 
Cc1cc(Oc2ccccc2F)cc(F)c1-n1ncc(C(=O)c2cc3cc(OCC(F)F)c(NS(C)(=O)=O)cc3[nH]2)c1N [Example 4-24-025, N-[2-[5-amino-1-[2-fluoro-4-(2-fluorophenoxy)-6-methylphenyl]pyrazole-4-carbonyl]-5-(2,2-difluoroethoxy)-1H-indol-6-yl]methanesulfonamide] | 1.6 | 59 | 13 |  |  | 
Cc1cc2cc(C(=O)c3cnn(-c4cnc(Oc5c(F)cccc5F)cc4C)c3N)[nH]c2cc1C1CCN(S(=O)(=O)C2CC2)CC1 [Example 5-1-144, [5-amino-1-[6-(2,6-difluorophenoxy)-4-methylpyridin-3-yl]pyrazol-4-yl]-[6-(1-cyclopropylsulfonylpiperidin-4-yl)-5-methyl-1H-indol-2-yl]methanone] |  |  |  | 5.7 | 81 | 76
Cc1cc(Oc2ccccc2F)ccc1-n1ncc(C(=O)c2cc3cc(OC4CCOCC4)c(NS(C)(=O)=O)cc3[nH]2)c1N [Example 4-24-036, N-{2-{5-amino-1-[4-(2-fluorophenoxy)-2-methylphenyl]pyrazole-4-carbonyl}-5-(oxan-4-yloxy)-1H-indol-6-yl}methanesulfonamide] | 4.2 | 120 | 20 |  |  | 
Cc1cc2cc(C(=O)c3cnn(-c4cnc(Oc5ccccc5F)cc4C)c3N)[nH]c2cc1NS(=O)(=O)c1cc(C#N)cc(C(F)(F)F)c1 [Example 5-1-499, N-[2-[5-amino-1-[6-(2-fluorophenoxy)-4-methylpyridin-3-yl]pyrazole-4-carbonyl]-5-methyl-1H-indol-6-yl]-3-cyano-5-(trifluoromethyl)benzenesulfonamide] | 16 | 1800 | 550 |  |  | 
Cc1cc2cc(C(=O)c3cnn(-c4cnc(Oc5ccccc5)cc4C)c3N)[nH]c2cc1NS(C)(=O)=O [Example 5-1-109, N-[2-[5-amino-1-(4-methyl-6-phenoxypyridin-3-yl)pyrazole-4-carbonyl]-5-methyl-1H-indol-6-yl]methanesulfonamide] |  |  |  | 0.7 | 37 | 1.4
Cc1cc2cc(C(=O)c3cnn(-c4cnc(Oc5ccc(F)cc5)cc4C)c3N)[nH]c2cc1NS(=O)(=O)N1CCOCC1 [Example 5-1-064, N-[2-[5-amino-1-[6-(4-fluorophenoxy)-4-methylpyridin-3-yl]pyrazole-4-carbonyl]-5-methyl-1H-indol-6-yl]morpholine-4-sulfonamide] |  |  |  | 24 | 340 | 260
CC(C)N1CCC(c2cc3[nH]c(C(=O)c4cnn(-c5ccc(Oc6cccc(F)c6F)cc5F)c4N)cc3cc2F)CC1 [Example 5-1-011, [5-amino-1-[4-(2,3-difluorophenoxy)-2-fluorophenyl]pyrazol-4-yl]-[5-fluoro-6-(1-propan-2-ylpiperidin-4-yl)-1H-indol-2-yl]methanone] |  |  |  | 0.86 | 14 | 2.6
Cc1cc(Oc2ccccc2F)cc(F)c1-n1ncc(C(=O)c2cc3cc(OC(F)F)c(NS(=O)(=O)C4CC4)cc3[nH]2)c1N [Example 4-24-005, N-[2-[5-amino-1-[2-fluoro-4-(2-fluorophenoxy)-6-methylphenyl]pyrazole-4-carbonyl]-5-(difluoromethoxy)-1H-indol-6-yl]cyclopropanesulfonamide] | 4.7 | 240 | 47 |  |  | 
Cc1cc(-n2ncc(C(=O)c3cc4cc(OC5CCN(C(C)C)CC5)c(Cl)cc4[nH]3)c2N)ccc1Oc1ccccc1F [Example 5-1-196, [5-amino-1-[4-(2-fluorophenoxy)-3-methylphenyl]pyrazol-4-yl]-[6-chloro-5-(1-propan-2-ylpiperidin-4-yl)oxy-1H-indol-2-yl] methanone] |  |  |  | 1.7 | 190 | 67
Cc1cc(C)c(S(=O)(=O)Nc2cc3[nH]c(C(=O)c4cnn(-c5cnc(Oc6ccccc6F)cc5C)c4N)cc3cc2C)c(C)c1 [Example 5-1-461] | 17 | 3500 | 590 |  |  | 
Cc1cc(Oc2ccccc2F)ccc1-n1ncc(C(=O)c2cc3cc(Cl)c(NS(C)(=O)=O)cc3[nH]2)c1N [Example 4-2-077, N-[2-[5-amino-1-[4-(2-fluorophenoxy)-2-methylphenyl]pyrazole-4-carbonyl]-5-chloro-1H-indol-6-yl]methanesulfonamide] | 0.64 | 25 | 4.3 |  |  | 
Cc1cc(Oc2c(F)cccc2F)ncc1-n1ncc(C(=O)c2cc3cc(OCC(F)F)c(NC4CN(S(C)(=O)=O)C4)cc3[nH]2)c1N [Example 4-23-022, {5-amino-1-[6-(2,6-difluorophenoxy)-4-methylpyridin-3-yl]pyrazol-4-yl}-[5-(2,2-difluoroethoxy)-6-[(1-methylsulfonylazetidin-3-yl)amino]-1H-indol-2-yl]methanone] | 1.3 | 24 | 8 |  |  | 
Cc1cc(Oc2ccccc2F)ccc1-n1ncc(C(=O)c2cc3cc(N4CCOCC4)c(N4CCCC4=O)cc3[nH]2)c1N [Example 5-1-105, 1-[2-[5-amino-1-[4-(2-fluorophenoxy)-2-methylphenyl]pyrazole-4-carbonyl]-5-morpholin-4-yl-1H-indol-6-yl]pyrrolidin-2-one] |  |  |  | 0.77 | 3.6 | 1.6
